# Laboratory results as given in patent publication US11554105B2, “Combinations of artemisinins, BCL-2 inhibitors, and kinase inhibitors for cancer treatment” (UNIVERSITY OF MARYLAND, BALTIMORE, priority 2018, dated 2023).
# “Also recorded” adds a separate entry of the source. Like-named read-outs stand apart in the source and are kept apart here. Marks after values point to notes of the source that are not given here.
# What was measured:
# [1] = test system: MOLM14, KOPN8 and RCH-ACV cell lines; experiment: Kinase inhibitor drug combination screen, summary over the three cell lines; conditions: for No. Cell Lines synergistically inhibited by drug 1 combined with AS and/or ART-838: >10% growth inhibition over the Bliss prediction, of three cell lines; for synergy with either AS or ART-838: growth inhibition of human leukemia cell lines
# Experimental: Plates (3×384-well per set) contained 7 graded concentrations of each drug at 2× final concentration in culture media in 25 μl/well. […] Cells were plated such that each well contained 2500 cells (MOLM14) or 5000 cells (KOPN8 and RCH-ACV). […] Each plate contained two positive control wells used for background subtraction. Each plate also contained 45 wells without any drug. The background-subtracted absorbance for each well was normalized to the average of the no-drug wells from the corresponding vehicle plate.
# Hits were ranked by the observed inhibition over the Bliss independence prediction.
# Combinations with positive values for this Bliss difference were considered synergistic, values near zero, additive, and negative values, antagonistic.
# [2] = test system: MOLM14 cells; experiment: Chou-Talalay drug combination analysis (alamarBlue) of AS or ART-838 with antileukemic drugs; assay type: cell-based, human; conditions: simultaneous 48 h, each drug at 2.25× single-drug IC50, CI<1 synergy, =1 additivity, >1 antagonism
# Experimental: For each two-drug pair, dose-response curves were generated for each drug individually and for the two drugs combined. […] This design is based on the recommendation of Chou that combination experiments be performed with drugs combined in an equipotent ratio based on their respective single-drug IC50 values. Following a 48-hour incubation with each drug or drug pair, cytotoxicity assays were performed using alamarBlue as described above.
# Each set of drug combinations was tested in at least three independent experiments, each in triplicate.
# Sequences are depicted at the bottom of FIG. 5.
# [3] = test system: mitochondrial superoxide in MOLM14 cells; experiment: Mitochondrial superoxide (MitoSOX Red, flow cytometry); assay type: cell-based, human; conditions: 16 h; for mitochondrial superoxide generation, drug alone: 2.25× approximate 48 h IC50, MitoSox MFI; for effect of the drug on ART-838-induced superoxide: drug combined with ART-838, each at 2.25× approximate 48 h IC50; for effect of the drug on AS-induced superoxide: drug combined with AS, each at 2.25× approximate 48 h IC50
# Experimental: FIGS. 4A-4D. Effects of ART-838- and AS-containing drug combinations on MOLM14 growth and superoxide generation. […] CIs were computed as described above. CI<1 indicates synergy, CI=1, additivity, CI>1, antagonism. […] Cells were then loaded with 5 μM MitoSox for 30 min, washed, and analyzed by flow cytometry for MitoSox fluorescence (indicating mitochondrial superoxide) in the FL2 channel. Mean fluorescence intensity (MFI) was normalized to that of vehicle control (0.5% DMSO) with no pretreatment (100%, lower dotted lines). Upper dotted lines show MFI of ART-838- or AS-treated cells. Error bars represent the SEM of three independent experiments.
# Cells were pretreated with NAC, Tiron, DFO, or vehicle then treated with AS, ART-838, or vehicle, as described above, then following a 16-hour drug treatment, cells were loaded with 5 μM MitoSOX Red (Invitrogen, Carlsbad, Calif.) for 30 minutes at 37° C. with 5% CO2, then analyzed using the FL2 channel of an Accuri C6 flow cytometer.
# As both ART-838 and AS increased mitochondrial superoxide, and many antineoplastic drugs induce ROS generation, mitochondrial superoxide levels of MOLM14 cells treated with each of the above six antileukemic drugs were evaluated, alone and in combination with ART-838 or AS. All six drugs induced mitochondrial superoxide, although to a much lesser extent than did ART-838 (FIG. 4B) or AS (FIG. 4D).
# [4] = test system: MOLM14 cells; experiment: alamarBlue cytotoxicity assay, single drugs, 48 h; assay type: cell-based; conditions: Homo sapiens, MOLM-14, MOLM14, 48 h, means of at least three experiments
# Experimental: Cytotoxicity was assessed using alamarBlue assays (Life Technologies, Grand Island, N.Y.; used for IC50 determinations and all drug combinations except the drug combination screen (method described separately below)) or Trypan Blue dye exclusion (Life Technologies, Grand Island, N.Y.; used for experiments using inhibitors that could interfere with alamarBlue assay performance (NAC, Tiron, DFO)).
# (§1) Cell lines were seeded in 96-well tissue culture plates at 10^4 cells per well (myeloid leukemia lines) or 2×10^4 cells per well (lymphoid leukemia lines) in culture medium, followed by addition of drugs at the indicated concentrations. 2-4 wells per plate containing media-only were included for background subtraction. Peripheral wells were filled with sterile water to minimize the effects of evaporation.
# Results were normalized to cells treated with vehicle (0.5% DMSO) alone. IC50s were calculated using CompuSyn software and represent the means of at least three experiments performed in triplicate.
# [5] = test system: acute leukemia xenografts; experiment: Acute leukemia xenografts treated with ART838 two-drug combinations; assay type: in vivo; conditions: compared to vehicle or single drugs
# Text: (§2) To add to the efficacy of this ART838 plus ABT199 treatment regimen, rational addition of a third low-toxicity active antileukemic agent was investigated.
# [6] = test system: MCL1; experiment: Western blot of MCL1 protein levels; assay type: cell-based, human; conditions: acute leukemia / AML cell lines
# Experimental: FIG. 22. ART631 increased ROS and CHOP levels, and reduced MCL1 protein levels. A) MOLM14 AML cells were pre-loaded with 5 mM ROS detection reagent CM-H2DCFDA for 30 m, pretreated with 11 mM for DFO for 60 m, then cultured with 200 nM ART631 or vehicle (DMSO) for 18 h and analyzed by flow cytometry. […] Protein was Western blotted as in FIG. 21. MCL1 protein levels were decreased and CHOP protein levels increased. C) From MOLM14 AML cells cultured as above, total RNA was isolated, cDNA synthesized, and SYBR Green qRT-PCR performed in triplicates. Ct values were normalized to housekeeping gene GAPDH and fold-change computed relative to vehicle control. DDIT3 mRNA (encoding CHOP protein) was increased. MV4; 11 AML and ML2 AML cell lines were tested with similar results.
# as §2
# Many acute myeloid leukemia (AML) cell lines express MCL1±BCL2 (FIG. 21). As with other ARTs, ART631 elevates AML cellular ROS (FIG. 22A), which is reduced by the iron chelator desferrioxamine (DFO). […] Culture of AML cells with ARTs increased CHOP protein and DDIT3 mRNA (encodes CHOP) levels (FIG. 22C).
# [7] = test system: MOLM14 AML xenografts; experiment: Subcutaneous MOLM14 xenograft growth, SOR with AS; assay type: in vivo, NSG mice; conditions: tumor size on day 24; drugs p.o.
# Experimental: FIG. 15. AS enhanced in vivo efficacy of Sorafenib (SOR) against acute leukemia xenografts in NSG mice. […] Drug or vehicle were given p.o. on day 3-7, 17-21, and 31-35 when possible. Mouse tumors were measured on the indicated days.
# The NSG mice were obtained, maintained and handled as described in the paragraph immediately above. AS was also formulated in Tween 80:ethanol (7:3, v:v) and diluted 1:10 in filtered deionized water immediately before administration. For the human AML xenograft model, 6-12-week-old male NSG mice (>20 g) were transplanted sc with MOLM14 cells on day 0 and drug-treated via oral gavage, as specified in legend. Mice were monitored daily and euthanized when tumors reached an estimated mass of 2000 mg as described in the paragraph immediately above.
# Palpable tumors appeared about 2 weeks after transplantation.
# [8] = test system: human AML cell lines; experiment: In vitro efficacies of artemisinin derivatives against human AML cell lines; assay type: cell-based
# Experimental: as §1
# A novel trioxane dimer allyloxime-631 (ART631) has been designed to further extend in vivo T1/2 without sacrificing antimalarial activity.
# [9] = in vivo; conditions: NRG (NOD-Rag1null IL2rgnull), mouse, in vivo, po
# Text: FIG. 24. Concentration-time profile for 2C-ARTs with PK parameters.
# FIG. 25A-25C. […] NOD-Rag1^nullIL2rg^null (NRG) mice were transplanted IV with Luc-labelled MV4; 11 cells on d10. […] FIG. 25A) MTD cyclic drug treatment schema.
# [10] = test system: MOLM14 cells; experiment: Combinations of AS, ART-838 or DHA with ABT-199, ABT-263 or ABT-737 (alamarBlue, 48 h); assay type: cell-based; conditions: Homo sapiens, MOLM-14; for inhibition at 0.037 µM: MOLM14
# Experimental: FIG. 12. […] Then cytotoxicity was evaluated by alamarBlue assays. Each experiment was performed in triplicate.
# MOLM14 or KOPN8 cells were seeded in 96-well plates as described above for alamarBlue assays. […] AlamarBlue assays were performed as described above. Each set of drugs or drug combinations was tested in triplicate. Chou-Talalay drug combination analysis was performed as above.
# [11] = test system: MOLM14-luc AML xenografts; experiment: Subcutaneous MOLM14-luc xenograft growth, ARA with ART-838; assay type: in vivo, NSG mice; conditions: tumor size on day 24; Ara-C 40 mg/kg/d i.p., ART-838 200 mg/kg/d p.o.
# Experimental: Ara-C (40 mg/kg/d) was given i.p. on day 17, 18, 19, 20, 21 and 24. […] Mouse tumors were measured on the indicated days.
# Highly immunodeficient NSG mice, obtained originally from Jackson Laboratory (Bar Harbor, Me.), were bred and housed in the UMSOM animal facilities, and handled in a laminar flow hood under aseptic conditions. […] For the human AML xenograft model, 6-12-week-old male NSG mice (>20 g) were transplanted sc with MOLM14-luc cells on day 0 and drug-treated via oral gavage, as specified in legend. Mice were monitored daily and euthanized when tumors reached an estimated mass of 2000 mg (using the formula: [length×width2]/2, assuming density=1 mg/mm3) [64].
# Palpable tumors (approximately 100 mg tumor mass) appeared in mice about 2 weeks after transplantation. Mouse tumors were measured with calipers on the indicated days.
smiles,measurement,setting,value
Cn1cc(-c2ccc3nnc(C(F)(F)c4ccc5ncccc5c4)n3n2)cn1 [JNJ-38877605],No. Cell Lines synergistically inhibited by drug 1 combined with AS and/or ART-838,[1],2/3
"C[C@]12O[C@H](C[C@]1(O)CO)n1c3ccccc3c3c4c(c5c6ccccc6n2c5c31)CNC4=O [LES, lestaurtinib]",combination index (CI) of the drug combined with AS,[2],1.5
"COc1cc([C@@H]2c3cc4c(cc3[C@@H](O[C@@H]3O[C@@H]5CO[C@@H](C)O[C@H]5[C@H](O)[C@H]3O)[C@H]3COC(=O)[C@H]23)OCO4)cc(OC)c1O [ETO, etoposide]","mitochondrial superoxide generation, drug alone",[3],induced mitochondrial superoxide generation
same,effect of the drug on ART-838-induced superoxide,[3],further enhanced
same,effect of the drug on AS-induced superoxide,[3],further enhanced
same,IC50,[4],242 nM
Nc1ncnc2c1c(-c1cccc(OCc3ccccc3)c1)cn2C1CC(CN2CCCC2)C1 (stereo not shown) [NVP-ADW742],No. Cell Lines synergistically inhibited by drug 1 combined with AS and/or ART-838,[1],2/3
CN(C)CC[C@H](CSc1ccccc1)Nc1ccc(S(=O)(=O)NC(=O)c2ccc(N3CCN(Cc4ccccc4-c4ccc(Cl)cc4)CC3)cc2)cc1[N+](=O)[O-] [ABT-737],No. Cell Lines synergistically inhibited by drug 1 combined with AS and/or ART-838,[1],3/3
same,synergy with either AS or ART-838,[1],Particularly strong synergy
COc1ccc(COc2ccc(Cc3cnc(N)nc3N)cc2OC)cc1 [GW-2580],No. Cell Lines synergistically inhibited by drug 1 combined with AS and/or ART-838,[1],2/3
O=C(Nc1cccc(C(F)(F)F)c1)Nc1cc(S(=O)(=O)NC2CC2)ccc1-c1ccsc1 [AGI6780],No. Cell Lines synergistically inhibited by drug 1 combined with AS and/or ART-838,[1],2/3**
"COc1cccc2c1C(=O)c1c(O)c3c(c(O)c1C2=O)C[C@@](O)(C(=O)CO)C[C@@H]3O[C@H]1C[C@H](N)[C@H](O)[C@H](C)O1 [DOX, doxorubicin]","mitochondrial superoxide generation, drug alone",[3],induced mitochondrial superoxide generation
same,effect of the drug on ART-838-induced superoxide,[3],further enhanced
same,effect of the drug on AS-induced superoxide,[3],further enhanced
O=S(=O)(NCCNC/C=C/c1ccc(Br)cc1)c1cccc2cnccc12 [H-89],No. Cell Lines synergistically inhibited by drug 1 combined with AS and/or ART-838,[1],2/3
"CNC(=O)c1cc(Oc2ccc(NC(=O)Nc3ccc(Cl)c(C(F)(F)F)c3)cc2)ccn1 [SOR, sorafenib]","leukemia xenograft growth rates, drug combined with ART838",[5],reduced leukemia xenograft growth rates
same,"survival, drug combined with ART838",[5],prolonged survivals
same,MCL1 protein levels,[6],large reductions; also recorded: downregulates
same,"tumor growth inhibition, AS plus SOR versus either drug alone",[7],inhibited tumor growth substantially more than did either drug alone
same,effect of the drug on AS-induced superoxide,[3],reduced
Cc1ccc(S(=O)(=O)OCC(=O)Nc2ccc(C(=O)O)c(O)c2)cc1 [S31-201],No. Cell Lines synergistically inhibited by drug 1 combined with AS and/or ART-838,[1],2/3
C[C@@H](Oc1cc(-c2cnn(C3CCNCC3)c2)cnc1N)c1c(Cl)ccc(F)c1Cl [Crizotinib],No. Cell Lines synergistically inhibited by drug 1 combined with AS and/or ART-838,[1],2/3**
"C[C@H]1[C@H](OC(=O)CCC(=O)O)O[C@@H]2O[C@@]3(C)CC[C@H]4[C@H](C)CC[C@@H]1[C@@]24OO3 [AS, artesunate]",IC50,"[8]; median over the human AML cell lines tested (11 for AS and ART838, 4 for ART631), read-out: IC50 median",1720 nM
same,IC50,"[8]; range over the human AML cell lines tested (11 for AS and ART838, 4 for ART631), read-out: IC50 range",796 to 6260 nM
same,"mitochondrial superoxide generation, drug alone",[3],induced mitochondrial superoxide generation
same,MTD at 5 d,[9],200 mg/kg/day
same,IC50,[10]; MOLM14 (AML) cell line,825 nM
CCc1cc(Nc2nccc(-c3c(-c4ccc(OC)c(C(=O)Nc5c(F)cccc5F)c4)nc4ccccn34)n2)c(OC)cc1N1CCC(N2CCN(S(C)(=O)=O)CC2)CC1 [GSK-1904529A],No. Cell Lines synergistically inhibited by drug 1 combined with AS and/or ART-838,[1],3/3
"Nc1ccn([C@@H]2O[C@H](CO)[C@@H](O)[C@@H]2O)c(=O)n1 [ARA, cytarabine]","mitochondrial superoxide generation, drug alone",[3],induced mitochondrial superoxide generation
same,effect of the drug on AS-induced superoxide,[3],further enhanced
same,"tumor growth inhibition, ARA plus ART-838 versus either drug alone",[11],inhibited tumor growth substantially more than did either drug alone
same,IC50,[4],286 nM
"CC1(C)CCC(c2ccc(Cl)cc2)=C(CN2CCN(c3ccc(C(=O)NS(=O)(=O)c4ccc(N[C@H](CCN5CCOCC5)CSc5ccccc5)c(S(=O)(=O)C(F)(F)F)c4)cc3)CC2)C1 [ABT-263, navitoclax]",synergy with either AS or ART-838,[1],Particularly strong synergy
"CC1(C)CCC(CN2CCN(c3ccc(C(=O)NS(=O)(=O)c4ccc(NCC5CCOCC5)c([N+](=O)[O-])c4)c(Oc4cnc5[nH]ccc5c4)c3)CC2)=C(c2ccc(Cl)cc2)C1 [ABT-199, venetoclax]","average inhibition over the Bliss predictions, ABT-199 plus ART-838",[1]; average of 3/3 cell lines,21%
same,"average inhibition over the Bliss predictions, ABT-199 plus AS",[1]; average of 3/3 cell lines,17%
same,inhibition at 0.037 µM,"[10]; 37 nM ABT-199 + 25 nM ART-838, read-out: growth inhibition, ABT-199 together with ART-838",100%
same,inhibition at 0.037 µM,"[10]; 37 nM ABT-199 + 825 nM AS, read-out: growth inhibition, ABT-199 together with AS",100%
